The subject of assay [1] is SARS-CoV-2 NIV2020-770 (D614G variant). In kind it is cell-based. To be noted: read-out: IC50, antiviral effect on SARS-CoV-2 NIV2020-770 (D614G variant).
In assay [2] the test system is SARS-CoV-2 Delta (B.617.2 variant). Kind of assay: microbe, parasite or virus in culture. In kind it is cell-based. To be noted: Severe acute respiratory syndrome coronavirus 2, read-out: IC50, antiviral effect on SARS-CoV-2 Delta (B.617.2 variant).

As to `O=c1cc(OCCOc2ccnc(SCc3ccc(F)cc3)n2)c2ccccc2o1` [5a, 4-(2-((2-((4-Fluorobenzyl)thio)pyrimidin-4-yl)oxy)ethoxy)-2H-chromen-2-one], the IC50 is less than 50 µM in assay [1] and less than 25 µM in assay [2].
With `Cc1cccc(CSc2nccc(OCCOc3cc(=O)oc4ccc(F)cc34)n2)c1` [5g, 6-Fluoro-4-(2-((2-((3-methylbenzyl)thio)pyrimidin-4-yl)oxy)ethoxy)-2H-chromen-2-one], the values for the IC50 in assay [1] and in assay [2] were less than 25 µM and less than 10 µM, respectively.
Take `O=c1cc(OCCCOc2ccnc(SCc3ccc(F)cc3)n2)c2ccccc2o1` [5b, 4-(3-((2-((4-Fluorobenzyl)thio)pyrimidin-4-yl)oxy)propoxy)-2H-chromen-2-one]: the IC50 was less than 10 µM in assay [1] and less than 2.5 µM in assay [2].
For `Cc1cccc(CSc2nccc(OCCCOc3cc(=O)oc4ccccc34)n2)c1` [5f, 4-(3-((2-((3-Methylbenzyl)thio)pyrimidin-4-yl)oxy)propoxy)-2H-chromen-2-one], the values for the IC50 in assay [1] and in assay [2] were less than 25 µM and less than 2.5 µM, respectively.
On to `O=c1cc(OCCOc2ccnc(SCc3ccc(Cl)cc3)n2)c2ccccc2o1` [5i, 4-(2-((2-((4-Chlorobenzyl)thio)pyrimidin-4-yl)oxy)ethoxy)-2H-chromen-2-one], for which the IC50 was less than 10 µM in assay [1] and less than 2.5 µM in assay [2].
Take `O=c1cc(OCCOc2ccnc(SCc3ccc(F)cc3)n2)c2cc(F)ccc2o1` [5c, 6-Fluoro-4-(2-((2-((4-fluorobenzyl)thio)pyrimidin-4-yl)oxy)ethoxy)-2H-chromen-2-one]: the figures for the IC50 in assay [1] and in assay [2] were less than 2.5 µM and less than 10 µM, respectively.
The like results for `O=c1cc(OCCCOc2ccnc(SCc3ccc(F)cc3)n2)c2cc(F)ccc2o1` [5d, 6-Fluoro-4-(3-((2-((4-fluorobenzyl)thio)pyrimidin-4-yl)oxy)propoxy)-2H-chromen-2-one] were, in that order, less than 10 µM and less than 10 µM.
With `Cc1cccc(CSc2nccc(OCCOc3cc(=O)oc4ccccc34)n2)c1` [5e, 4-(2-((2-((3-Methylbenzyl)thio)pyrimidin-4-yl)oxy)ethoxy)-2H-chromen-2-one], the IC50 in assay [1] is less than 25 µM; in assay [2], less than 10 µM.
The matching figures for `Cc1cccc(CSc2nccc(OCCCOc3cc(=O)oc4ccc(F)cc34)n2)c1` [5h, 6-Fluoro-4-(3-((2-((3-methylbenzyl)thio)pyrimidin-4-yl)oxy)propoxy)-2H-chromen-2-one]: less than 2.5 µM and less than 10 µM.

The record behind these values is PMC10398856 (ACS Omega, 2023).
